Test results reported in ChEMBL document CHEMBL1201862, “PubChem BioAssay data set” (2004).
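All cell lines were grown in 96-well plates and treated with compound for 48 hours. Abbreviation: GI50, concentration required for 50% inhibition of growth.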 Activity calls are given as the source filed them. Rule as the data show it: active = GI50 up to about 1.1 µM and inactive = higher.

Key:
Assay in all cases: DTP human tumour cell line panel, 48 h
[1] = system: NCI-H522
[2] = system: KM12
[3] = system: SK-MEL-2
[4] = system: SF-268
[5] = system: SNB-19
[6] = system: Hs-578T
[7] = system: OVCAR-8
[8] = system: U-251
[9] = system: K562
[10] = system: IGROV-1
[11] = system: MCF7
[12] = system: SF-539
[13] = system: SK-MEL-28
[14] = system: RPMI-8226
[15] = system: ACHN
[16] = system: HOP-62
[17] = system: HT-29
[18] = system: NCI-H226
[19] = system: T47D
[20] = system: SK-MEL-5
[21] = system: SK-OV-3
[22] = system: CCRF-CEM
[23] = system: MDA-MB-435
[24] = system: OVCAR-3
[25] = system: SW-620
[26] = system: EKVX
[27] = system: UO-31
[28] = system: CAKI-1
[29] = system: MDA-MB-231
[30] = system: A549
[31] = system: SR
[32] = system: NCI/ADR-RES
[33] = system: SN12C
[34] = system: LOX IMVI
[35] = system: 786-0
[36] = system: SNB-75
[37] = system: M14
[38] = system: TK-10
[39] = system: MOLT-4
[40] = system: HL-60
[41] = system: NCI-H460
[42] = system: COLO 205
[43] = system: UACC-257
[44] = system: OVCAR-5
[45] = system: MDA-N
[46] = system: PC-3
[47] = system: HCT-116
[48] = system: DU-145
[49] = system: SF-295
[50] = system: HCT-15
[51] = system: OVCAR-4
[52] = system: RXF 393
[53] = system: HCC 2998
[54] = system: UACC-62
[55] = system: HOP-92
[56] = system: Malme-3M
[57] = system: A498
[58] = system: NCI-H23

## CC1(C)CC(=O)c2c(nc3c(ccc4ccccc43)c2-c2ccc(NC(=O)CCCCCCCCC(=O)Nc3ccc(-c4c5c(nc6c4ccc4ccccc46)CC(C)(C)CC5=O)cc3)cc2)C1
[1]
  GI50: > 100 µM (inactive)
[2]
  GI50: > 100 µM (inactive)
[3]
  GI50: > 100 µM (inactive)
[4]
  GI50: > 100 µM (inactive)
[5]
  GI50: > 100 µM (inactive)
[6]
  GI50: > 100 µM (inactive)
[7]
  GI50: > 100 µM (inactive)
[8]
  GI50: > 100 µM (inactive)
[9]
  GI50: > 100 µM (inactive)
[10]
  GI50: 0.017 µM (active)
[11]
  GI50: > 100 µM (inactive)
[12]
  GI50: > 100 µM (inactive)
[13]
  GI50: > 100 µM (inactive)
[14]
  GI50: > 100 µM (inactive)
[15]
  GI50: > 100 µM (inactive)
[16]
  GI50: > 100 µM (inactive)
[17]
  GI50: > 100 µM (inactive)
[18]
  GI50: > 100 µM (inactive)
[19]
  GI50: > 100 µM (inactive)
[20]
  GI50: > 100 µM (inactive)
[21]
  GI50: > 100 µM (inactive)
[22]
  GI50: > 100 µM (inactive)
[23]
  GI50: > 100 µM (inactive)
[24]
  GI50: > 100 µM (inactive)
[25]
  GI50: > 100 µM (inactive)
[26]
  GI50: > 100 µM (inactive)
[27]
  GI50: > 100 µM (inactive)
[28]
  GI50: > 100 µM (inactive)
[29]
  GI50: > 100 µM (inactive)
[30]
  GI50: > 100 µM (inactive)
[31]
  GI50: > 100 µM (inactive)
[32]
  GI50: > 100 µM (inactive)
[33]
  GI50: > 100 µM (inactive)
[34]
  GI50: > 100 µM (inactive)
[35]
  GI50: > 100 µM (inactive)
[36]
  GI50: > 100 µM (inactive)
[37]
  GI50: > 100 µM (inactive)
[38]
  GI50: > 100 µM (inactive)
[39]
  GI50: > 100 µM (inactive)
[40]
  GI50: > 100 µM (inactive)
[41]
  GI50: > 100 µM (inactive)
[42]
  GI50: > 100 µM (inactive)
[43]
  GI50: > 100 µM (inactive)
[44]
  GI50: > 100 µM (inactive)
[45]
  GI50: > 100 µM (inactive)
[46]
  GI50: > 100 µM (inactive)
[47]
  GI50: > 100 µM (inactive)
[48]
  GI50: > 100 µM (inactive)
[49]
  GI50: > 100 µM (inactive)

## Brc1ccc(-c2cc(-c3ccc4c(c3)OCO4)c(-c3cccs3)n2Cc2ccccc2)cc1
[2]
  GI50: > 100 µM (inactive)
[3]
  GI50: > 100 µM (inactive)
[4]
  GI50: > 100 µM (inactive)
[5]
  GI50: > 100 µM (inactive)
[6]
  GI50: > 100 µM (inactive)
[7]
  GI50: > 100 µM (inactive)
[8]
  GI50: > 100 µM (inactive)
[9]
  GI50: > 100 µM (inactive)
[10]
  GI50: > 100 µM (inactive)
[11]
  GI50: > 100 µM (inactive)
[12]
  GI50: > 100 µM (inactive)
[50]
  GI50: > 100 µM
[13]
  GI50: > 100 µM (inactive)
[14]
  GI50: > 100 µM (inactive)
[15]
  GI50: > 100 µM (inactive)
[16]
  GI50: > 100 µM (inactive)
[17]
  GI50: > 100 µM (inactive)
[19]
  GI50: > 100 µM (inactive)
[20]
  GI50: > 100 µM (inactive)
[21]
  GI50: > 100 µM (inactive)
[22]
  GI50: > 100 µM (inactive)
[51]
  GI50: > 100 µM (inactive)
[52]
  GI50: > 100 µM (inactive)
[23]
  GI50: > 100 µM (inactive)
[25]
  GI50: > 100 µM (inactive)
[26]
  GI50: > 100 µM (inactive)
[27]
  GI50: > 100 µM (inactive)
[28]
  GI50: > 100 µM (inactive)
[53]
  GI50: > 100 µM (inactive)
[29]
  GI50: > 100 µM (inactive)
[30]
  GI50: > 100 µM (inactive)
[31]
  GI50: > 100 µM (inactive)
[32]
  GI50: > 100 µM (inactive)
[33]
  GI50: > 100 µM (inactive)
[35]
  GI50: > 100 µM (inactive)
[36]
  GI50: > 100 µM (inactive)
[37]
  GI50: > 100 µM (inactive)
[38]
  GI50: > 100 µM (inactive)
[39]
  GI50: > 100 µM (inactive)
[40]
  GI50: > 100 µM (inactive)
[54]
  GI50: > 100 µM (inactive)
[41]
  GI50: > 100 µM (inactive)
[42]
  GI50: > 100 µM (inactive)
[43]
  GI50: > 100 µM (inactive)
[45]
  GI50: > 100 µM (inactive)
[46]
  GI50: > 100 µM (inactive)
[47]
  GI50: > 100 µM (inactive)
[48]
  GI50: > 100 µM (inactive)
[49]
  GI50: > 100 µM (inactive)

## CC(=O)c1sc2[n+](c1C)C(=O)/C(=C\c1ccccc1Cl)S2
[55]
  GI50: 56.2 µM (inactive)
[1]
  GI50: 18.2 µM (inactive)
[2]
  GI50: 17.3 µM (inactive)
[3]
  GI50: 24 µM (inactive)
[4]
  GI50: 23.2 µM (inactive)
[5]
  GI50: 20.3 µM (inactive)
[6]
  GI50: 47.8 µM (inactive)
[7]
  GI50: 24.3 µM (inactive)
[8]
  GI50: 16.6 µM (inactive)
[9]
  GI50: 25.5 µM (inactive)
[10]
  GI50: 18.3 µM (inactive)
[11]
  GI50: 16.1 µM (inactive)
[12]
  GI50: 21.8 µM (inactive)
[50]
  GI50: 14.1 µM
[13]
  GI50: 16.7 µM (inactive)
[14]
  GI50: 17.5 µM (inactive)
[56]
  GI50: 17.5 µM (inactive)
[15]
  GI50: 20.5 µM (inactive)
[16]
  GI50: 22.8 µM (inactive)
[17]
  GI50: 20.6 µM (inactive)
[18]
  GI50: 13.3 µM (inactive)
[19]
  GI50: 15.7 µM (inactive)
[20]
  GI50: 11.3 µM (inactive)
[21]
  GI50: 25.1 µM (inactive)
[22]
  GI50: 27.6 µM (inactive)
[51]
  GI50: 29.2 µM (inactive)
[52]
  GI50: 26.1 µM (inactive)
[23]
  GI50: 15.3 µM (inactive)
[24]
  GI50: 18 µM (inactive)
[25]
  GI50: 17.3 µM (inactive)
[26]
  GI50: 26.8 µM (inactive)
[27]
  GI50: 19.3 µM (inactive)
[28]
  GI50: 24.5 µM (inactive)
[53]
  GI50: 20 µM (inactive)
[29]
  GI50: 25.4 µM (inactive)
[57]
  GI50: 29.7 µM (inactive)
[30]
  GI50: 19.6 µM (inactive)
[31]
  GI50: 18.3 µM (inactive)
[32]
  GI50: 21 µM (inactive)
[33]
  GI50: 34.2 µM (inactive)
[34]
  GI50: 18 µM (inactive)
[35]
  GI50: 21.9 µM (inactive)
[36]
  GI50: 26.8 µM (inactive)
[58]
  GI50: 19.3 µM (inactive)
[37]
  GI50: 18.6 µM (inactive)
[38]
  GI50: 26.9 µM (inactive)
[39]
  GI50: 22.4 µM (inactive)
[40]
  GI50: 20.7 µM (inactive)
[54]
  GI50: 13.1 µM (inactive)
[41]
  GI50: 16.3 µM (inactive)
[42]
  GI50: 14.9 µM (inactive)
[43]
  GI50: 19.4 µM (inactive)
[44]
  GI50: 24.3 µM (inactive)
[45]
  GI50: 19.4 µM (inactive)
[46]
  GI50: 22.5 µM (inactive)
[47]
  GI50: 20.7 µM (inactive)
[48]
  GI50: 18.7 µM (inactive)
[49]
  GI50: 16 µM (inactive)
